Measurements taken from ChEMBL document CHEMBL3244322, “5-O-Alkylated derivatives of 5-hydroxy-2'-deoxyuridine as potential antiviral agents. Anti-herpes activity of 5-propynyloxy-2'-deoxyuridine” (J Med Chem, 1978).
≈ marks a conversion by molar mass, not a printed value.

Each compound was assayed on Vaccinia virus (assay: Antiviral activity against Vaccinia virus infected in primary rabbit kidney cells assessed as inhibition of virus-induced cytopathogenicity). Conditions: Orthopoxvirus vaccinia.
Assay type: functional
Work on `C#CCOc1cn([C@H]2C[C@H](O)[C@@H](CO)O2)c(=O)[nH]c1=O` yielded an MIC of 35 µM (≈ 9.88 µg/mL).
`O=c1[nH]c(=O)n([C@H]2C[C@H](O)[C@@H](CO)O2)cc1O` showed an MIC of 14 µM (≈ 3.42 µg/mL).
With `NC(=O)COc1cn([C@H]2C[C@H](O)[C@@H](CO)O2)c(=O)[nH]c1=O` the MIC was 130 µM (≈ 39.2 µg/mL).
`O=c1[nH]c(=O)n([C@H]2C[C@H](O)[C@@H](CO)O2)cc1OCc1ccccc1` was tested, and the MIC was over 300 µM.
Compound `O=c1[nH]c(=O)n([C@@H]2O[C@H](CO)[C@@H](O)[C@H]2O)cc1OCc1ccc([N+](=O)[O-])cc1` has an MIC of over 600 µM.
In the case of `O=c1[nH]c(=O)n([C@H]2C[C@H](O)[C@@H](CO)O2)cc1OCc1ccc([N+](=O)[O-])cc1`, the MIC is reported as over 260 µM.
`O=c1[nH]c(=O)n([C@@H]2O[C@H](CO)[C@@H](O)[C@H]2O)cc1OCc1ccccc1` showed an MIC of over 600 µM.
`Nc1ncnc2c1ncn2[C@@H]1O[C@H](CO)[C@@H](O)[C@@H]1O` [VIDARABINE] showed an MIC of 1.4 µM (≈ 0.374 µg/mL).
In the case of `Cc1ccc(COc2cn([C@@H]3O[C@H](CO)[C@@H](O)[C@H]3O)c(=O)[nH]c2=O)cc1`, the MIC is reported as over 600 µM.
In the case of `O=c1[nH]c(=O)n([C@H]2C[C@H](O)[C@@H](CO)O2)cc1I` [IDOXURIDINE], the MIC is reported as 1.4 µM (≈ 0.496 µg/mL).
In the case of `NC(=O)COc1cn([C@@H]2O[C@H](CO)[C@@H](O)[C@H]2O)c(=O)[nH]c1=O`, the MIC is reported as over 600 µM.
With `O=C(O)COc1cn([C@H]2C[C@H](O)[C@@H](CO)O2)c(=O)[nH]c1=O` the MIC was over 600 µM.
Compound `C=CCOc1cn([C@@H]2O[C@H](CO)[C@@H](O)[C@H]2O)c(=O)[nH]c1=O` has an MIC of over 600 µM.
`C=CCOc1cn([C@H]2C[C@H](O)[C@@H](CO)O2)c(=O)[nH]c1=O` gave an MIC of 70 µM (≈ 19.9 µg/mL).
